These results are taken from ChEMBL document CHEMBL1201862, “PubChem BioAssay data set” (2004).

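48-hour exposure; five concentrations; linearly interpolated endpoints. Here, GI50 denotes the concentration required for 50% inhibition of growth.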 Active and inactive are the calls of the source. No stated cut-off is given here; in the data, active = GI50 up to about 1.1 µM and inactive = higher. Where only a bound is given, the exact number is not on record here.

Among the test systems are 786-0; A549; ACHN; CAKI-1; HCC 2998; HCT-116; HT-29; M14; MCF7; MDA-N; MOLT-4; NCI/ADR-RES; SF-295; SK-MEL-28; SK-MEL-5; SW-620; TK-10; UACC-257; DU-145; SF-268.
Holding throughout (test): NCI anticancer screen, dose series, 48 h

Consider `CC(C)(C)n1c(=O)[nH]c(=O)n1C(C)(C)C`, for which the GI50 in the assay on 786-0, in the assay with A549, in the assay on ACHN, in the assay with CAKI-1, in the assay on HCC 2998 and with HCT-116 was > 100 µM (inactive) each time. For the same molecule, the GI50 in the assay on HT-29, in the assay on M14, in the assay with MCF7, in the assay on MDA-N, with MOLT-4 and in the assay with NCI/ADR-RES was > 100 µM (inactive) in each case. In addition, the GI50 in the assay on SF-295, with SK-MEL-28, with SK-MEL-5, with SW-620, in the assay with TK-10 and in the assay on UACC-257 was > 100 µM (inactive) in each case.

Take `C(=N\c1ccc(-c2nc3ccccc3s2)cc1)/c1cccs1`: the GI50 was 48.2 µM (inactive) in the assay on 786-0; 57.7 µM (inactive) in the assay on A549; 35.8 µM (inactive) with ACHN; 38.5 µM (inactive) in the assay on CAKI-1; 69.8 µM (inactive) in the assay with DU-145; 34 µM (inactive) in the assay on HCC 2998. For the same molecule, the GI50 in the assay on HCT-116 is 52.1 µM (inactive); in the assay with HT-29, 52.4 µM (inactive); in the assay on M14, 69 µM (inactive); in the assay with MDA-N, 39.4 µM (inactive); in the assay with MOLT-4, 27 µM (inactive); in the assay with NCI/ADR-RES, 43.3 µM (inactive). Besides, the GI50 with SF-268 is 34.8 µM (inactive); in the assay with SF-295, 23.2 µM (inactive); with SK-MEL-28, > 100 µM (inactive); in the assay with SK-MEL-5, 30.4 µM (inactive); in the assay on SW-620, 75.3 µM (inactive); with TK-10 it was 30.5 µM (inactive). Moreover, the GI50 in the assay with UACC-257 was 38.2 µM (inactive).

On to `CC(=O)Oc1ccc2cc(Oc3ccc(Cl)c(Cl)c3)c(=O)oc2c1`, for which the GI50 in the assay on 786-0 is 19.5 µM (inactive); with A549 it was 31.3 µM (inactive); in the assay on ACHN, 25.8 µM (inactive); in the assay on CAKI-1, 20.3 µM (inactive); in the assay on DU-145 it was 39.3 µM (inactive); in the assay on HCC 2998, 19.5 µM (inactive). Further, the GI50 with HCT-116 is 18.5 µM (inactive); with HT-29, 35.5 µM (inactive); with M14, 38.5 µM (inactive); in the assay on MCF7, 34.8 µM (inactive); with MDA-N, 25.9 µM (inactive); with MOLT-4 it was 18.3 µM (inactive). Moreover, the GI50 is 34 µM (inactive) in the assay with SF-268; 38.1 µM (inactive) with SF-295; 25.3 µM (inactive) in the assay with SK-MEL-28; 20.3 µM (inactive) in the assay with SK-MEL-5; 33.3 µM (inactive) with SW-620; 17.9 µM (inactive) in the assay with TK-10. For the same molecule, the GI50 in the assay on UACC-257 is 25.1 µM (inactive).

Take `CC(=O)CC1(OC(=O)C2C(C=C(C)C)C2(C)C)C(=O)Nc2ccccc21` (stereo not given): the GI50 is > 100 µM (inactive) with 786-0; > 100 µM (inactive) in the assay with A549; 78.3 µM (inactive) in the assay on ACHN; > 100 µM (inactive) with CAKI-1; > 100 µM (inactive) with DU-145; > 100 µM (inactive) in the assay on HCC 2998. Moreover, the GI50 is > 100 µM (inactive) with HCT-116; > 100 µM (inactive) in the assay on HT-29; > 100 µM (inactive) with M14; > 100 µM (inactive) with MDA-N; > 100 µM (inactive) in the assay with MOLT-4; 68.5 µM (inactive) in the assay on NCI/ADR-RES. Besides, the GI50 in the assay on SF-268, in the assay on SF-295, in the assay on SK-MEL-28, with SK-MEL-5, with SW-620 and in the assay with TK-10 was > 100 µM (inactive) throughout. For the same molecule, in the assay on UACC-257, the GI50 is > 100 µM (inactive).

Take `C[N+](C)(CCNc1ccc(NCC[N+](C)(C)Cc2ccc([N+](=O)[O-])cc2)c2c1C(=O)c1c(O)ccc(O)c1C2=O)Cc1ccc([N+](=O)[O-])cc1`: the GI50 in the assay with 786-0 was 8.41 µM (inactive); in the assay on A549 it was 28.2 µM (inactive); in the assay with ACHN, > 50 µM (inactive); in the assay with CAKI-1, > 50 µM (inactive); in the assay on DU-145, 25.5 µM (inactive); in the assay with HCC 2998, > 50 µM (inactive). The GI50 in the assay with HCT-116 is 9.53 µM (inactive); in the assay on HT-29 it was 17.7 µM (inactive); with M14 it was > 50 µM (inactive); in the assay on MDA-N, 46.7 µM (inactive); in the assay with MOLT-4 it was > 5 µM (inactive); in the assay on NCI/ADR-RES it was > 50 µM (inactive). For the same molecule, the GI50 was > 50 µM (inactive) in the assay with SF-268; 16.7 µM (inactive) with SF-295; > 50 µM (inactive) with SK-MEL-28; 15 µM (inactive) in the assay with SK-MEL-5; > 50 µM (inactive) in the assay with SW-620; > 50 µM (inactive) with TK-10. Besides, in the assay on UACC-257, the GI50 was > 50 µM (inactive).

Regarding `COc1cc(/C=C/C2=NN(c3cccc(S(=O)(=O)O)c3)C3(C2)C(Cl)C(=O)N3c2nc3ccccc3s2)ccc1O` (stereo not given), the GI50 is 17.4 µM (inactive) in the assay with 786-0; 31 µM (inactive) in the assay on A549; 16.7 µM (inactive) in the assay with ACHN; 17 µM (inactive) in the assay on CAKI-1; 20.7 µM (inactive) in the assay on HCC 2998; 19.5 µM (inactive) in the assay on HCT-116. Moreover, the GI50 in the assay on HT-29 was 20.7 µM (inactive); in the assay on M14, 40.7 µM (inactive); in the assay on MCF7, 33.1 µM (inactive); in the assay on MDA-N it was 25.2 µM (inactive); in the assay with MOLT-4, 19.2 µM (inactive); in the assay on NCI/ADR-RES, 27.4 µM (inactive). Also, the GI50 is 23.8 µM (inactive) in the assay with SF-268; 25.1 µM (inactive) with SK-MEL-28; 23.6 µM (inactive) in the assay with SK-MEL-5; 21.1 µM (inactive) with SW-620; 14.8 µM (inactive) in the assay on TK-10; 19.9 µM (inactive) in the assay on UACC-257.

Regarding `COc1ccc2c(=O)c(-c3cc(OC)c(OC)cc3OC)coc2c1`, the GI50 in the assay on 786-0 was 4.11 µM (inactive); with A549 it was 5.41 µM (inactive); in the assay on ACHN it was > 82.8 µM (inactive); in the assay on CAKI-1, 3.01 µM (inactive); in the assay on DU-145, 2.86 µM (inactive); in the assay on HCC 2998 it was 2.94 µM (inactive). Besides, the GI50 in the assay on HCT-116 is 2.28 µM (inactive); in the assay with HT-29, 2.35 µM (inactive); in the assay on M14, 4.49 µM (inactive); in the assay on MCF7, 0.778 µM (active); in the assay with MDA-N it was 0.262 µM (active); in the assay on MOLT-4, 2 µM (inactive). The GI50 in the assay on SF-268 is 4.73 µM (inactive); in the assay with SF-295, 1.66 µM (inactive); with SK-MEL-28 it was 3.65 µM (inactive); in the assay on SK-MEL-5, 1.55 µM (inactive); with SW-620 it was 2.33 µM (inactive); in the assay on TK-10, 31.5 µM (inactive). In addition, the GI50 with UACC-257 was 11.3 µM (inactive).

For the molecule `COc1cc2c(cc1OC)C(=O)N(c1ccc(O)cc1)C2`, the GI50 with 786-0, with A549, with ACHN, with CAKI-1, in the assay with DU-145 and with HCC 2998 was > 100 µM (inactive) in each case. For the same molecule, the GI50 with HCT-116, in the assay with HT-29, in the assay with M14, in the assay on MDA-N, with MOLT-4 and in the assay on NCI/ADR-RES was > 100 µM (inactive) in each case. Also, the GI50 in the assay with SF-268, in the assay with SF-295, in the assay on SK-MEL-28, in the assay on SK-MEL-5, in the assay with SW-620 and in the assay with TK-10 was > 100 µM (inactive) each time. Also, in the assay on UACC-257, the GI50 was > 100 µM (inactive).
